Source: ChEMBL document CHEMBL3039007, “Structure-based identification of OATP1B1/3 inhibitors” (Mol Pharmacol, 2013)

Columns and labels:
[1] = target: T1, Solute carrier organic anion transporter family member 1B1 (Homo sapiens, UniProt Q9Y6L6); conditions: chinese hamster, cho, 10 µM
T1 sequence (Q9Y6L6 whole entry): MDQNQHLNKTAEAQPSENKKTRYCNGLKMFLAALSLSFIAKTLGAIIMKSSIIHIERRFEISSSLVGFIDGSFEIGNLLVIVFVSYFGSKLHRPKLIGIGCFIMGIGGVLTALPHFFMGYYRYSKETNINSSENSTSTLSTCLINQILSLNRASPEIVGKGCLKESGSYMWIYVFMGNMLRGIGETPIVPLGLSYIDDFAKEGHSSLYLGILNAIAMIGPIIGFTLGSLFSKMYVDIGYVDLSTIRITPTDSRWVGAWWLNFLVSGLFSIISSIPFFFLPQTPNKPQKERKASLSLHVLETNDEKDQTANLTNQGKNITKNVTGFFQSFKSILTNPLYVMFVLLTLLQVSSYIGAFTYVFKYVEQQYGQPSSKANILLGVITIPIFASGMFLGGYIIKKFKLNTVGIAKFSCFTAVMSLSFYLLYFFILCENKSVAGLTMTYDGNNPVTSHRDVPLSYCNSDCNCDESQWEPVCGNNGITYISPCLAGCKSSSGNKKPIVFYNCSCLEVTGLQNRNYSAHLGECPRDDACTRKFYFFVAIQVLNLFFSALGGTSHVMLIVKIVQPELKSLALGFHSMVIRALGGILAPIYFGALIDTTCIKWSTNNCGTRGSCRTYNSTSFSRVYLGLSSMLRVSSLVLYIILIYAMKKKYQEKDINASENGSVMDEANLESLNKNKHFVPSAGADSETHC

[2] = target: T2, Solute carrier organic anion transporter family member 1B3 (Homo sapiens, UniProt Q9NPD5); conditions: chinese hamster, cho, 10 µM
T2 sequence (Q9NPD5 whole entry): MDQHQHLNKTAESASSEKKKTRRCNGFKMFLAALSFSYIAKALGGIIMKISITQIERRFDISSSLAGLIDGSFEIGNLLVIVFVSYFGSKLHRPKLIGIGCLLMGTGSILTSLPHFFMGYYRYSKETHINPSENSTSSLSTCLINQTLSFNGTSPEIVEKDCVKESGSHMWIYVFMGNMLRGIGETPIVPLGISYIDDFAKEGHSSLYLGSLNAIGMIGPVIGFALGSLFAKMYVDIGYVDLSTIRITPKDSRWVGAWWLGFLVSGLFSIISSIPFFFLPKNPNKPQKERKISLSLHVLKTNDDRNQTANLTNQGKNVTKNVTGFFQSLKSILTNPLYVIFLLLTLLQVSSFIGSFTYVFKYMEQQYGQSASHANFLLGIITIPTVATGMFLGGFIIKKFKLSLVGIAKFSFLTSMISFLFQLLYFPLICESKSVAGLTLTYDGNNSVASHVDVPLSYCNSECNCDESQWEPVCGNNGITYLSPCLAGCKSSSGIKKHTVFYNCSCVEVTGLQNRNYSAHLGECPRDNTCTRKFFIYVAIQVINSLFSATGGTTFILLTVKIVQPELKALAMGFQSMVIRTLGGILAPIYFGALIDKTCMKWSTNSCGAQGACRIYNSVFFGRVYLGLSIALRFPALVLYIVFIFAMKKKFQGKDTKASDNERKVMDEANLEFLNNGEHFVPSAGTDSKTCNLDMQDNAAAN

| SMILES | residual activity [1] [%] | residual activity [2] [%] |
| --- | --- | --- |
| CC(C)C[C@H](CN)CC(=O)O [PREGABALIN] | 120.6 | 101.4 |
| CCN(CC)CCOC(=O)c1ccc(N)cc1.Cl [PROCAINE HYDROCHLORIDE] | 104.1 | 104.2 |
| CC(C)=CCC[C@](C)(O)[C@@H]1CC=C(C)CC1 [LEVOMENOL] | 83.39 | 97.78 |
| O=C([O-])P(=O)([O-])[O-].[Na+].[Na+].[Na+] [FOSCARNET SODIUM] | 113 | 110.8 |
| Cc1nccc2c1[nH]c1ccccc12 [HARMAN] | 81.51 | 99.56 |
| Oc1ccc(Cl)c2cccnc12 [CLOXYQUIN] | 104 | 93.36 |
| CC(=O)OCC(COC(C)=O)OC(C)=O [TRIACETIN] | 98.2 | 86.74 |
| CC(=O)O[C@@H]1C[C@H]2C(C)(C)C=CC(=O)[C@@]2(C)[C@H]2CC[C@]3(C)[C@@H](c4ccoc4)OC(=O)[C@H]4O[C@]43[C@]21C | 18.57 | 46.89 |
| COc1c(C(=O)O)ccc2c1CCC(C)(C)O2 [DIHYDRO-beta-TUBAIC ACID] | 98.02 | 102.8 |
| CS(=O)(=O)c1ccc([C@@H](O)[C@@H](CO)NC(=O)C(Cl)Cl)cc1 [THIAMPHENICOL] | 102.1 | 103.5 |
| C[C@@H]1CC[C@@]2(OC1)O[C@H]1[C@@H](O)[C@H]3[C@@H]4CC[C@H]5C[C@@H](O[C@@H]6O[C@H](CO)[C@H](O[C@@H]7O[C@H](CO)C(O)[C@H](O[C@@H]8OC[C@@H](O)[C@H](O)[C@H]8O)[C@H]7O[C@@H]7O[C@H](CO)[C@H](O)[C@H](O[C@@H]8O[C@H](CO)[C@@H](O)[C@H](O)[C@H]8O)[C@H]7O)[C@H](O)[C@H]6O)[C@H](O)C[C@]5(C)[C@H]4CC[C@]3(C)[C@H]1[C@@H]2C (some centres not stated) [DIGITONIN] | 76.09 | 98.34 |
| Cc1ncc(CNC(=O)N(CCCl)N=O)c(N)n1 [NIMUSTINE] | 121.9 | 112 |
| C[C@]12CCC(=O)C=C1CC[C@@H]1[C@@H]2C(=O)C[C@@]2(C)[C@H]1CC[C@]2(O)C(=O)CO [CORTISONE] | 76.37 | 69.54 |
| Cc1cccc(Nc2ccncc2S(=O)(=O)NC(=O)NC(C)C)c1 [TORSEMIDE] | 73.9 | 73.29 |
| CCCCCCCCCc1ccc(O)cc1 [4-NONYLPHENOL] | 140.8 | 184.2 |
| Cl.N=C(N)NC(=O)c1nc(Cl)c(N)nc1N.O.O [AMILORIDE HYDROCHLORIDE] | 51.46 | 65.11 |
| [O-][n+]1ccccc1[S][Zn][S]c1cccc[n+]1[O-] [PYRITHIONE ZINC] | 92.52 | 94.54 |
| COc1ccc2c(c1)OC[C@@H](Cc1ccc(OC)c(OC)c1)[C@H]2O [TETRAHYDROSAPPANONE A TRIMETHYL ETHER] | 93.05 | 134.3 |
| C[C@]12CCC(=O)C=C1C=C[C@@H]1[C@@H]2CC[C@@]2(C)[C@H]1CC[C@@]21CCC(=O)O1 [CANRENONE] | 32.01 | 78.65 |
| COC(=O)C[C@H]1C(C)(C)C2(O)OC34CC2C(=O)[C@]1(C)C3CC[C@]1(C)C4=CC(=O)O[C@H]1c1ccoc1 (stereo partly drawn) [8beta-HYDROXYCARAPIN, 3,8-HEMIACETAL] | 28.54 | 49.62 |
| CC(=O)O[C@H]1C[C@@H](OC(C)=O)C(C)(C)[C@@H]2C[C@@H](OC(C)=O)[C@]3(C)[C@H](CC[C@@]4(C)[C@H](c5ccoc5)OC(=O)[C@H]5O[C@@]534)[C@@]12C [KHIVORIN] | 77.22 | 94.96 |
| CNC(=O)ON=C(C)SC [METHOMYL] | 80.5 | 109.3 |
| CC(C)NCC(O)COc1cccc2ccccc12.Cl (configuration not stated) [PROPRANOLOL HYDROCHLORIDE] | 59.88 | 95.98 |

| SMILES | residual activity [1] [%] | residual activity [2] [%] |
| --- | --- | --- |
| C[C@]12C=CC(=O)C=C1CC[C@@H]1[C@@H]2CC[C@]2(C)C(=O)CC[C@@H]12 [ANDROSTENEDONE] | 128.1 | 104 |
| Cl.N=C(N)NC(=N)Nc1ccccc1 [1-PHENYLBIGUANIDE HYDROCHLORIDE] | 80.12 | 94.41 |
| CC1(C)O[C@@H]2C[C@H]3[C@@H]4C[C@H](F)C5=CC(=O)C=C[C@]5(C)[C@H]4[C@@H](O)C[C@]3(C)[C@]2(C(=O)CO)O1 [FLUNISOLIDE] | 55.07 | 77.49 |
| COc1ccc(C(c2ccc(OC)cc2)C(Cl)(Cl)Cl)cc1 [METHOXYCHLOR] | 114 | 102.3 |
| O=c1oc2ccccc2c(O)c1Cc1c(O)c2ccccc2oc1=O [DICUMAROL] | 33.08 | 19.32 |
| CCN(CC)CCNC(=O)c1ccc(NC(C)=O)cc1.Cl [ACECAINIDE HYDROCHLORIDE] | 70.32 | 90.6 |
| COP(=S)(OC)Oc1ccc(SC)c(C)c1 [FENTHION] | 116.2 | 100.4 |
| CC1(C)C(=O)C=C[C@]2(C)[C@H]3CC[C@@]4(C)[C@H](c5ccoc5)OC(=O)[C@H]5O[C@]54[C@]3(C)[C@H](O)C[C@@H]12 [DEACETYLGEDUNIN] | 74.35 | 60.92 |
| Cc1cc(O)cc(=O)o1 | 87.56 | 97.35 |
| Nc1nc2ccc(OC(F)(F)F)cc2s1 [RILUZOLE] | 95.81 | 124.8 |
| C[C@H]1[C@H]2CC[C@H]3[C@@H]4CC=C5C[C@@H](N(C)C)CC[C@]5(C)[C@H]4CC[C@]23CN1C [CONESSINE] | 100.9 | 111.5 |
| O=C1c2ccccc2C(=O)c2c(O)c(O)cc(O)c21 [PURPURIN] | 100.1 | 98.68 |
| CCCCCCCCCCCCCCCC(=O)OC/C=C(C)/C=C/C=C(C)/C=C/C1=C(C)CCCC1(C)C [VITAMIN A PALMITATE] | 77.04 | 85.92 |
| COC1=C(OC)C(=O)C(C/C=C(\C)CC/C=C(\C)CC/C=C(\C)CC/C=C(\C)CC/C=C(\C)CC/C=C(\C)CC/C=C(\C)CC/C=C(\C)CC/C=C(\C)CCC=C(C)C)=C(C)C1=O [UBIDECARENONE] | 118.6 | 137.7 |
| CCN(CC)CCNc1ccc(CO)c2sc3ccccc3c(=O)c12 [HYCANTHONE] | 79.76 | 100.5 |
| CCc1nc(N)nc(N)c1-c1ccc(Cl)cc1 [PYRIMETHAMINE] | 72.59 | 107.4 |
| Clc1ccc2c(c1)C(N1CCNCC1)=Nc1ccccc1O2 [AMOXAPINE] | 115.8 | 101.5 |
| O=C(O)c1ccccc1C(=O)Nc1ccc(S(=O)(=O)Nc2nccs2)cc1 [PHTHALYLSULFATHIAZOLE] | 115.5 | 107 |
| O=c1c(-c2cc(O)c(O)c(O)c2)coc2cc(O)c(O)c(O)c12 [IRIGENOL] | 71.59 | 92.26 |
| O=c1cc(-c2ccccc2)oc2cc(O)cc(O)c12 [CHRYSIN] | 115.4 | 129.1 |
| C=C1C2=CC(=O)O[C@@H](c3ccoc3)[C@]2(C)CCC1[C@@]1(C)C=CC(=O)C(C)(C)[C@@H]1CC(=O)OC (some centres not stated) [DEOXYANDIROBIN] | 27.69 | 42.8 |
| CC(N/C(=N\C#N)Nc1ccncc1)C(C)(C)C (configuration not stated) [PINACIDIL ANHYDROUS] | 96.43 | 90.66 |
| Cc1ccc(S(=O)(=O)NC(=O)NN2CC3CCCC3C2)cc1 (configuration not stated) [GLICLAZIDE] | 106.3 | 113.3 |
